This passage reports Dmax results from US12454520B2, “Protein degraders and uses thereof” (Kymera Therapeutics, Inc., priority 2018, dated 2025).

In this test the target is T1, SMARCA2 (Homo sapiens, UniProt P51531).
T1 construct: endogenous in cells; host or cells: NCI-H1299
T1 sequence (P51531 whole entry): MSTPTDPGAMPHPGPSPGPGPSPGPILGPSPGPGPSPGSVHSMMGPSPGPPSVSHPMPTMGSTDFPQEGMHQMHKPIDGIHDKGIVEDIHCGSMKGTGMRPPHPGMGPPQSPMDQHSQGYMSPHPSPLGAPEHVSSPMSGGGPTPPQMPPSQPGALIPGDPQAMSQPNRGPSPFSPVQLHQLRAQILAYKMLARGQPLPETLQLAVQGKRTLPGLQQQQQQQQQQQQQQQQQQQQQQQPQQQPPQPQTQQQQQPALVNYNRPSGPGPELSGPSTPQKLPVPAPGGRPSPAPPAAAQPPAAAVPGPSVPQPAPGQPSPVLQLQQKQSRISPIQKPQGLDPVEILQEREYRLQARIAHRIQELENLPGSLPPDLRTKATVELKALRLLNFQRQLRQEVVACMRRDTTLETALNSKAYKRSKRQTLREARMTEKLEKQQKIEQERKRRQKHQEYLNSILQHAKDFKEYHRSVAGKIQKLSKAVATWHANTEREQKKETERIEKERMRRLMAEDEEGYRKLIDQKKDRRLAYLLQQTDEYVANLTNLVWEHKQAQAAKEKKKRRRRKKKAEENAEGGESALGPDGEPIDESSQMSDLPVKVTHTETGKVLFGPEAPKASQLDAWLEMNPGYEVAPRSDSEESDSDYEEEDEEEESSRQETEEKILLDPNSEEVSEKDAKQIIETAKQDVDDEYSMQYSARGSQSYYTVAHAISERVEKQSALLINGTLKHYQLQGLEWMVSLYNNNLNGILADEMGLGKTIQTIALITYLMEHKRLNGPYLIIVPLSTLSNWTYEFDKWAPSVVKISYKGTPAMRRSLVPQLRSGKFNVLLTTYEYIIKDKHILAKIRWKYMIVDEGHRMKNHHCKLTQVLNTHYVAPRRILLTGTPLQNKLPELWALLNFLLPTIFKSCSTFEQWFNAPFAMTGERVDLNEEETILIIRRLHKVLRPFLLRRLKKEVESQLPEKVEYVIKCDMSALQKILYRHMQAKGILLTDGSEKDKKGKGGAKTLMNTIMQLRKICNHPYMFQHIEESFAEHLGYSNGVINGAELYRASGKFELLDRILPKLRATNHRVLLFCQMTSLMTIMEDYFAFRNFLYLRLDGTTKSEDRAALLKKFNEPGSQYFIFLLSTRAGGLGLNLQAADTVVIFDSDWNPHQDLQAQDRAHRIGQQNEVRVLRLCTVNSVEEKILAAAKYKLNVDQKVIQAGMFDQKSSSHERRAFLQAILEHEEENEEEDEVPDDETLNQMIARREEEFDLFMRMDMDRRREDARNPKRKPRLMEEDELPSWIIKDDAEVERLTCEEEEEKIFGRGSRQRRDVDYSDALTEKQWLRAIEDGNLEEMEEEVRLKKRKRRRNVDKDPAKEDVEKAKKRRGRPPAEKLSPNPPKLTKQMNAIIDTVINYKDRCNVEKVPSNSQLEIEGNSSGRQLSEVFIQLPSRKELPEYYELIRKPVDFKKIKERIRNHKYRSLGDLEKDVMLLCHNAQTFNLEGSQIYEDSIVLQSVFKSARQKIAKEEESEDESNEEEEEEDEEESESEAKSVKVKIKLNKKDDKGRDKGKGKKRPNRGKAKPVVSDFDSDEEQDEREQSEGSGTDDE
As to the kind of experiment: MSD SMARCA2 degradation in NCI-H1299 cell line. The note with it: NCI-H1299 cells, percentage of SMARCA2 degradation after 24 hours. Format: cell-based. The procedure:
Example 14. MSD SMARCA2 Degration in NCI-H1299 Cell Line
Cell Culture: Cells were cultured in exponential growth phase.
Compound Preparation and Treatment: NCI-H1299 cells were seeded into the 96-well plate at 4.0*10^4 cells per 100ul per well. Incubate the plate in the incubator overnight. The next day, compounds were diluted to designed stock concentration by TECAN, then perform a 3 fold, 9-point dilution via transferring 15 uL compound into 30 μL DMSO using Apricot. 200 nL diluted compound from compound source plate were transferred into the 96-intermediate plate as designated by using Echo550, followed with 100 ul culture medium to make the 2× compound solution. Cell plate were changed with 80 ul of fresh culture medium and 80 ul of 2× compound solution was added into the well to achieve the final designed concentration. Cell plate was then shaken at 720 rpm for 5 min and incubated for 24 hours in the incubator.
Sample Preparation: Media was aspirated from the cultures and the plate was washed with PBS twice. 60 ul of pre-chilled PIPA lysis buffer (Boston BioProducts BP-115D) with protease inhibitor were directly added into the well to lyze the cells for 20 minutes at 4° C. Cell lysates were collected.
MSD Procedure: The MSD plate was coated with 40 ul cell lysate and incubated at 4° C. overnight. The next day, the MSD coated bare plate was washed 3 times with 150 ul 1×TBST per well, blocked with 150 ul of blocking buffer per well, and shaken for 1 hour at RT, 600 rpm. Blocking buffer was 3% Blocker A in TBST. MSD plate was then washed 3 times with 150 ul 1×TBST per well and Primary Detection antibody (Rabbit anti-SMARCA2/BRM antibody, 100 μg/ml, ab223735) was added to a final [conc.]: 0.3 ug/ml, 25ul/well and shaken for 1 hour at RT, 600 rpm. Antibody was prepared in Antibody Detection buffer (1% Blocker A in 1×TBST). The MSD plate was then washed 3 times with 150 ul 1×TBST per well. Secondary Detection antibody (SULFO-TAG anti-species antibody) was then added to a final [conc.]: 1 μg/ml, 25 ul/well, and shaken for 1 hour at RT, 600 rpm. Antibodies were prepared in Antibody Detection buffer (1% Blocker A in 1×TBST). MSD plate was washed 3 times with 150 ul 1×TBST per well and 2×MSD reading buffer was added, 150 ul per well, and diluted from 4× with water. MSD instrument was then read.
Data Analysis: The percentage of relative level of SMARCA2 level was calculated following equation below.
LC: A2780, SMARCA2 negative cells. HC: NCI-H1299 cells treated with DMSO.
The letter codes for the percentage of SMARCA2 degradation after 24 hours (Dmax %) include: A (>90% degradation), B (>70-90% degradation), C (50-70% degradation), and D (<50% degradation).
The molecule `Nc1nnc(-c2ccccc2O)cc1-c1ccc(CN2CCN(CCCCCCCc3ccc4c(c3)c3cccnc3n4C3CCC(=O)NC3=O)CC2)cc1` (stereo not drawn) [I-75] registered a Dmax of 70 to 90%.
With `Nc1nnc(-c2ccccc2O)cc1-c1ccc(CN2CCN(CCCCCCCCc3ccc4c(c3)c3cccnc3n4C3CCC(=O)NC3=O)CC2)cc1` (stereo not drawn) [I-76] the figure was above 90%.
Turning to `Nc1nnc(-c2ccccc2O)cc1-c1ccc(CN2CCN(CCCCCCCCCc3ccc4c(c3)c3cccnc3n4C3CCC(=O)NC3=O)CC2)cc1` (stereo not drawn) [I-77], the greatest degradation seen (Dmax) is above 90%.
To `Nc1nnc(-c2ccccc2O)cc1-c1ccc(CN2CCN(CCCCCc3cccc4c3c3cccnc3n4C3CCC(=O)NC3=O)CC2)cc1` (stereo not drawn) [I-78] belongs 50 to 70%; to `Nc1nnc(-c2ccccc2O)cc1-c1ccc(CN2CCN(CCCCCCc3cccc4c3c3cccnc3n4C3CCC(=O)NC3=O)CC2)cc1` (stereo not drawn) [I-79], 50 to 70%; to `Nc1nnc(-c2ccccc2O)cc1-c1ccc(CN2CCN(CCCCCCCc3cccc4c3c3cccnc3n4C3CCC(=O)NC3=O)CC2)cc1` (stereo not drawn) [I-80], above 90%.
In the case of `Nc1nnc(-c2ccccc2O)cc1-c1ccc(CN2CCN(CCCCCc3ccnc4c3c3ccccc3n4C3CCC(=O)NC3=O)CC2)cc1` (stereo not drawn) [I-81], the Dmax lay in the range of 70 to 90%.
`Nc1nnc(-c2ccccc2O)cc1-c1ccc(CN2CCN(CCCCCCc3ccnc4c3c3ccccc3n4C3CCC(=O)NC3=O)CC2)cc1` (stereo not drawn) [I-82] gave a Dmax of 70 to 90%.
For `Nc1nnc(-c2ccccc2O)cc1-c1ccc(CN2CCN(CCCCCCCc3ccnc4c3c3ccccc3n4C3CCC(=O)NC3=O)CC2)cc1` (stereo not drawn) [I-83], the greatest degradation seen (Dmax) was 70 to 90%.
Molecule `Nc1nnc(-c2ccccc2O)cc1-c1ccc(CN2CCN(CCCCOCCCc3ccc4c(c3)c3cccnc3n4C3CCC(=O)NC3=O)CC2)cc1` (stereo not drawn) [I-84] yielded a Dmax of 50 to 70%.
`CN(Cc1ccc(N2CCN(c3cc(-c4ccccc4O)nnc3N)CC2)cc1)CC1CCN(Cc2ccc3c(c2)c2cccnc2n3C2CCC(=O)NC2=O)CC1` (stereo not drawn) [I-85] showed a Dmax above 90%.
`Nc1nnc(-c2ccccc2O)cc1-c1ccc(CN2CCN(CCCc3ccc4c(c3)c3cccnc3n4C3CCC(=O)NC3=O)CC2)cc1` (stereo not drawn) [I-86] had a maximal degradation (Dmax) below 50%.
In turn, `CN(Cc1ccc(N2CCN(c3cc(-c4ccccc4O)nnc3N)CC2)cc1)CC1CCN(Cc2cccc3c2c2cccnc2n3C2CCC(=O)NC2=O)CC1` (stereo not drawn) [I-87] registered a Dmax below 50%.
With `Nc1nnc(-c2ccccc2O)cc1-c1ccc(CNCCOCCOCCCc2cnc3c(c2)c2ccccc2n3C2CCC(=O)NC2=O)cc1` (stereo not drawn) [I-88] the figure was 70 to 90%; with `Nc1nnc(-c2ccccc2O)cc1-c1cnn(CC2CCN(CCCCOCCCc3cccc4c3c3cccnc3n4C3CCC(=O)NC3=O)CC2)c1` (stereo not drawn) [I-89], below 50%.
As to `Nc1nnc(-c2ccccc2O)cc1N1CCN(Cc2cccc3c2c2cccnc2n3C2CCC(=O)NC2=O)CC1` (stereo not drawn) [I-90], the Dmax was below 50%.
Molecule `Nc1nnc(-c2ccccc2O)cc1N1CCN(CCCc2cccc3c2c2cccnc2n3C2CCC(=O)NC2=O)CC1` (stereo not drawn) [I-91] had a Dmax below 50%.
As for `Nc1nnc(-c2ccccc2O)cc1N1CCN(CCCCCc2cccc3c2c2cccnc2n3C2CCC(=O)NC2=O)CC1` (stereo not drawn) [I-92], the Dmax is below 50%.
With `CN(Cc1ccc(N2CCN(c3cc(-c4ccccc4O)nnc3N)CC2)cc1)Cc1cccc2c1c1cccnc1n2C1CCC(=O)NC1=O` (stereo not drawn) [I-93], the Dmax is below 50%.
For `CN(CCCc1cccc2c1c1cccnc1n2C1CCC(=O)NC1=O)Cc1ccc(N2CCN(c3cc(-c4ccccc4O)nnc3N)CC2)cc1` (stereo not drawn) [I-94], the Dmax fell in the range of 50 to 70%.
Consider `CN(CCCCCc1cccc2c1c1cccnc1n2C1CCC(=O)NC1=O)Cc1ccc(N2CCN(c3cc(-c4ccccc4O)nnc3N)CC2)cc1` (stereo not drawn) [I-95], for which the Dmax is below 50%.
The molecule `Nc1nnc(-c2ccccc2O)cc1-c1cnn(CC2CCN(Cc3cccc4c3c3cccnc3n4C3CCC(=O)NC3=O)CC2)c1` (stereo not drawn) [I-96] registered a Dmax of 50 to 70%.
With `Nc1nnc(-c2ccccc2O)cc1-c1cnn(CC2CCN(CCCc3cccc4c3c3cccnc3n4C3CCC(=O)NC3=O)CC2)c1` (stereo not drawn) [I-97], the greatest degradation seen (Dmax) was above 90%.
With `Nc1nnc(-c2ccccc2O)cc1-c1cnn(CC2CCN(CCCCCc3cccc4c3c3cccnc3n4C3CCC(=O)NC3=O)CC2)c1` (stereo not drawn) [I-98] the figure was above 90%; with `Nc1nnc(-c2ccccc2O)cc1N1CCN(CCCc2ccnc3c2c2ccccc2n3C2CCC(=O)NC2=O)CC1` (stereo not drawn) [I-99], below 50%; with `Nc1nnc(-c2ccccc2O)cc1N1CCN(CCCCCc2ccnc3c2c2ccccc2n3C2CCC(=O)NC2=O)CC1` (stereo not drawn) [I-100], below 50%.
With `CN(CCCc1ccnc2c1c1ccccc1n2C1CCC(=O)NC1=O)Cc1ccc(N2CCN(c3cc(-c4ccccc4O)nnc3N)CC2)cc1` (stereo not drawn) [I-101], the Dmax was below 50%.
`CN(CCCCCc1ccnc2c1c1ccccc1n2C1CCC(=O)NC1=O)Cc1ccc(N2CCN(c3cc(-c4ccccc4O)nnc3N)CC2)cc1` (stereo not drawn) [I-102] gave a Dmax of 50 to 70%.
The molecule `Nc1nnc(-c2ccccc2O)cc1-c1cnn(CC2CCN(CCCc3ccnc4c3c3ccccc3n4C3CCC(=O)NC3=O)CC2)c1` (stereo not drawn) [I-103] had a Dmax above 90%.
In turn, `Nc1nnc(-c2ccccc2O)cc1-c1cnn(CC2CCN(CCCCCc3ccnc4c3c3ccccc3n4C3CCC(=O)NC3=O)CC2)c1` (stereo not drawn) [I-104] registered a Dmax above 90%.
Consider `Nc1nnc(-c2ccccc2O)cc1-c1ccc(CN2CCN(Cc3ccc4c(c3)c3cccnc3n4C3CCC(=O)NC3=O)CC2)cc1` (stereo not drawn) [I-105], for which the greatest degradation seen (Dmax) is below 50%.
To `Nc1nnc(-c2ccccc2O)cc1-c1cnn(C2CCN(CCCCc3ccc4c(c3)c3cccnc3n4C3CCC(=O)NC3=O)CC2)c1` (stereo not drawn) [I-133] belongs above 90%; to `Nc1nnc(-c2ccccc2O)cc1-c1cnn(CC2CCN(CCCCc3ccc4c(c3)c3cccnc3n4C3CCC(=O)NC3=O)CC2)c1` (stereo not drawn) [I-134], 70 to 90%.
With `Nc1nnc(-c2ccccc2O)cc1-c1cnn(C2CCN(CCCCCc3ccc4c(c3)c3cccnc3n4C3CCC(=O)NC3=O)CC2)c1` (stereo not drawn) [I-135] the figure was 50 to 70%; with `Nc1nnc(-c2ccccc2O)cc1-c1cnn(C2CCN(CCCCCc3ccnc4c3c3ccccc3n4C3CCC(=O)NC3=O)CC2)c1` (stereo not drawn) [I-137], above 90%.
`Nc1nnc(-c2ccccc2O)cc1N1CC2CCC(C1)N2c1ncc(C2CCN(CCCc3ccc4c(c3)c3cccnc3n4C3CCC(=O)NC3=O)CC2)cn1` (stereo not drawn) [I-138, 3-[6-[3-[4-[2-[3-[3-amino-6-(2-hydroxyphenyl)pyridazin-4-yl]-3,8-diazabicyclo[3.2.1]octan-8-yl]pyrimidin-5-yl]-1-piperidyl]propyl]pyrido[2,3-b]indol-9-yl]piperidine-2,6-dione] registered a maximal degradation (Dmax) above 90%.
`Nc1nnc(-c2ccccc2O)cc1-c1cnn(CC2COC(CCCCc3ccc4c(c3)c3cccnc3n4C3CCC(=O)NC3=O)OC2)c1` (stereo not drawn) [I-140, 3-(6-(4-(5-((4-(3-amino-6-(2-hydroxyphenyl)pyridazin-4-yl)-1H-pyrazol-1-yl)methyl)-1,3-dioxan-2-yl)butyl)-9H-pyrido[2,3-b]indol-9-yl)piperidine-2,6-dione]: the Dmax was below 50%.
On to `Nc1nnc(-c2ccccc2O)cc1-c1cnn([C@H]2CCCN(CCCc3ccc4c(c3)c3cccnc3n4C3CCC(=O)NC3=O)C2)c1` (stereo partly drawn) [I-141, 3-[6-[3-[(3S)-3-[4-[3-amino-6-(2-hydroxyphenyl)pyridazin-4-yl]pyrazol-1-yl]-1-piperidyl]propyl]pyrido[2,3-b]indol-9-yl]piperidine-2,6-dione], for which the Dmax fell in the range of 70 to 90%.
On to `Nc1nnc(-c2ccccc2O)cc1-c1cnn(C2CCCN(CCCc3ccc4c(c3)c3cccnc3n4C3CCC(=O)NC3=O)C2)c1` (stereo not drawn) [I-142], for which the greatest degradation seen (Dmax) is below 50%.
